Data from patent US9815839B2, “N-(1-(substituted-phenyl)ethyl)-9H-purin-6-amines as PI3K inhibitors” (Incyte Corporation, priority 2010, dated 2017).
Counter-ions that a name gives are not always drawn.

How the values were obtained:
[1] = tested on: Pfeiffer cell line (diffuse large B cell lymphoma); assay: Pfeiffer cell proliferation assay; type: cell-based; details: Homo sapiens, Pfeiffer, Pfeiffer cells, 3-4 days plus 12 hours [3H]-thymidine incorporation
Experimental: Example C: Pfeiffer Cell Proliferation Assay
Pfeiffer cell line (diffuse large B cell lymphoma) was purchased from ATCC (Manassas, Va.) and maintained in the culture medium recommended (RPMI and 10% FBS). To measure the anti-proliferation activity of the compounds, the Pfeiffer cells were plated with the culture medium (2×10^3 cells/well/per 200 μl) into 96-well ultra-low binding plates (Corning, Corning, N.Y.), in the presence or absence of a concentration range of test compounds. After 3-4 days, [^3H]-thymidine (1 μCi/well) (PerkinElmer, Boston, Mass.) in PBS was then added to the cell culture for an additional 12 hours before the incorporated radioactivity was separated by filtration with water through GF/B filters (Packard Bioscience, Meridenj, Conn.) and measured by liquid scintillation counting with a TopCount (Packard Bioscience).

PI3Kδ (p110δ/p85α) = target: T1, PI3Kδ (p110δ/p85α) (Homo sapiens, UniProt O00329); assay: PI3Kδ scintillation proximity assay; type: biochemical; details: 20 μM ATP, 4 nM PI3Kδ
T1 construct: purchased Millipore (Bedford, Mass.)
In short: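 p110δ/p85α (4 nM) phosphorylated 20 μM PIP2 with 20 μM ATP plus [γ-33P]ATP in 20 mM MOPS pH 6.7, 10 mM MgCl2, 5 mM DTT, 0.03% CHAPS, 0.5% DMSO, 210 min at room temperature. EDTA quench, WGA SPA bead capture, scintillation counting; IC50 from log-concentration fit.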

T1 sequence (O00329 whole entry, species assumed): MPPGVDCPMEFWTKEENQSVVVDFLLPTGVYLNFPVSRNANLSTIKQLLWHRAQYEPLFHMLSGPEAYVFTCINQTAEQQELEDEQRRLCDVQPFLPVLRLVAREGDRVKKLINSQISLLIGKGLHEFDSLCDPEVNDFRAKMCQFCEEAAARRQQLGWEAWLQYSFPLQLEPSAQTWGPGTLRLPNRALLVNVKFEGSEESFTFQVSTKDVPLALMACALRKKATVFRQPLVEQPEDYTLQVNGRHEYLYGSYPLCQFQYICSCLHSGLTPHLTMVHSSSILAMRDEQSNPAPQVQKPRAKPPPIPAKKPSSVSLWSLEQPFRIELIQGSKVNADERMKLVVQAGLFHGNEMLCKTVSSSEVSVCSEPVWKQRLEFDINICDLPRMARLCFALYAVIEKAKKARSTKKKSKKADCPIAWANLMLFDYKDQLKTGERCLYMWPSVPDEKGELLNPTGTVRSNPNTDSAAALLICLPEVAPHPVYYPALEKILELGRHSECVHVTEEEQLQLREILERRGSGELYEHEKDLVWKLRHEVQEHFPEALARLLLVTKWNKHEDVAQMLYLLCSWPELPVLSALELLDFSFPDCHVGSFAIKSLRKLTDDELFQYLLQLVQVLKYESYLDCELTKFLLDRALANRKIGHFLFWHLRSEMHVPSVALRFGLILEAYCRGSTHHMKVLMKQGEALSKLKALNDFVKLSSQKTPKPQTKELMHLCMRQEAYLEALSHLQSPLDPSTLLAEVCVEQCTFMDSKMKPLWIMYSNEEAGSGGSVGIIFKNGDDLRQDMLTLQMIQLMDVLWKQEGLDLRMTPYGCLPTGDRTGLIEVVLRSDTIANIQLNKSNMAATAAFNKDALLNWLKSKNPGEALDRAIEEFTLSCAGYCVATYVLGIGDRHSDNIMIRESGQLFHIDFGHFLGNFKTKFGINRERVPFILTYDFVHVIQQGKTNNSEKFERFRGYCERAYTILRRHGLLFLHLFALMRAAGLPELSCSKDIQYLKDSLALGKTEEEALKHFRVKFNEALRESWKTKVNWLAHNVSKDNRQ
T1 sequence (P27986 whole entry partner, species assumed): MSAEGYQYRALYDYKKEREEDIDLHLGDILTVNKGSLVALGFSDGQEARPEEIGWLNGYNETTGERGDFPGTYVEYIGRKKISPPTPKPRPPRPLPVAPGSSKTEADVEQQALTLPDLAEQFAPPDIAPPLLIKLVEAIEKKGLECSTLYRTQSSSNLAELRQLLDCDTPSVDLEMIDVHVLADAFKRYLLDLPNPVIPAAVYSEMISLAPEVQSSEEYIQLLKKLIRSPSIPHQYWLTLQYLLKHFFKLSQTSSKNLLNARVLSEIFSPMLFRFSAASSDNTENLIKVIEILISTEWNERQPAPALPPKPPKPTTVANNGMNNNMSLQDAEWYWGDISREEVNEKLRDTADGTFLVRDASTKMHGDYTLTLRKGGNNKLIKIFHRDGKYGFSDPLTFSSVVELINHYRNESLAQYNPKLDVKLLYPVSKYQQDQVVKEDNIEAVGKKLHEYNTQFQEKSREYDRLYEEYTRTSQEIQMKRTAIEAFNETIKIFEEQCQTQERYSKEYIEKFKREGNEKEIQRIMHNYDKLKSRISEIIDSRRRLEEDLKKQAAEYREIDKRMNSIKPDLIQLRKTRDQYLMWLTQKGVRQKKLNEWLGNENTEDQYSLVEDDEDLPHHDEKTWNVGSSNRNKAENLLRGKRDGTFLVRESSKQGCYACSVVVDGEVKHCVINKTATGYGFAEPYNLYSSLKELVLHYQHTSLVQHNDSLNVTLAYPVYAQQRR

SMILES | IC50 [1] | IC50 (PI3Kδ (p110δ/p85α))
COc1c(C(C)Nc2ncnc3[nH]cnc23)cc(Cl)c(C)c1-c1cnc(F)c(C)c1 (stereo not drawn) [Example 87, N-{1-[5-chloro-3-(6-fluoro-5-methylpyridin-3-yl)-2-methoxy-4-methylphenyl]ethyl}-9H-purin-6-amine] | < 100 nM | < 50 nM
Cc1c(Cl)cc(C(C)Nc2ncnc3[nH]cnc23)c(-c2cc(F)cc(F)c2)c1N1CCCC1=O (stereo not drawn) [Example 6, 1-{4-Chloro-3′,5′-difluoro-3-methyl-6-[1-(9H-purin-6-ylamino)ethyl]biphenyl-2-yl}pyrrolidin-2-one trifluoroacetate] | < 100 nM | < 50 nM
COc1c(C(C)Nc2ncnc3[nH]cnc23)cc(Cl)c(C)c1-c1cncc(Cl)c1 (stereo not drawn) [Example 36, N-{1-[5-chloro-3-(5-chloropyridin-3-yl)-2-methoxy-4-methylphenyl]ethyl}-9H-purin-6-amine] | < 100 nM | < 50 nM
Cc1c(Cl)cc(C(C)Nc2ncnc3[nH]cnc23)c(-c2ccccc2)c1-c1ccc(S(C)(=O)=O)cc1 (stereo not drawn) [Example 14, N-{1-[5′-chloro-6′-methyl-4-(methylsulfonyl)-1,1′:2′,1″-terphenyl-3′-yl]ethyl}-9H-purin-6-amine] | < 100 nM | < 50 nM
COc1c(C(C)Nc2ncnc3[nH]cnc23)cc(Cl)c(C)c1-c1cccc(N(C)C)c1 (stereo not drawn) [Example 100, N-{1-[5-chloro-3′-(dimethylamino)-2-methoxy-6-methylbiphenyl-3-yl]ethyl}-9H-purin-6-amine] | > 1000 nM | < 50 nM
COc1c(C(C)Nc2ncnc3[nH]cnc23)cc(Cl)c(Cl)c1C1CN(C(C)C)C1 (stereo not drawn) [Example 194, N-{1-[4,5-Dichloro-3-(1-isopropylazetidin-3-yl)-2-methoxyphenyl]ethyl}-9H-purin-6-amine bis(trifluoroacetate)] | < 100 nM | < 50 nM
COc1ccc(-c2c(C)c(Cl)cc(C(C)Nc3ncnc4[nH]cnc34)c2OC)cc1Cl (stereo not drawn) [Example 97, N-[1-(3′,5-dichloro-2,4′-dimethoxy-6-methylbiphenyl-3-yl)ethyl]-9H-purin-6-amine] | 100 to 500 nM | 50 to 100 nM
CCOc1c(C(C)Nc2ncnc3[nH]cnc23)cc(C#N)c(F)c1-c1cncc(S(C)(=O)=O)c1 (stereo not drawn) [Example 212, 4-Ethoxy-2-fluoro-3-[5-(methylsulfonyl)pyridin-3-yl]-5-[1-(9H-purin-6-ylamino)ethyl]benzonitrile bis(trifluoroacetate)] | 100 to 500 nM | < 50 nM
Cc1c(Cl)cc(C(C)Nc2ncnc3[nH]cnc23)c(-c2ccccc2)c1-c1ccc(C(=O)NC2CC2)cc1 (stereo not drawn) [Example 16, 5′-chloro-N-cyclopropyl-6′-methyl-3′-[1-(9H-purin-6-ylamino)ethyl]-1,1′:2′,1″-terphenyl-4-carboxamide] | < 100 nM | < 50 nM
Cc1c(Cl)cc(C(C)Nc2ncnc3[nH]cnc23)c(-c2cc(F)cc(F)c2)c1-c1ccc(C#N)cc1 (stereo not drawn) [Example 79, 5′-chloro-3″,5″-difluoro-6′-methyl-3′-[1-(9H-purin-6-ylamino)ethyl]-1,1′:2′,1″-terphenyl-4-carbonitrile] | 100 to 500 nM | 100 to 250 nM
Cc1c(Cl)cc(C(C)Nc2ncnc3[nH]cnc23)c(-c2ccccc2)c1-c1ccc(C#N)cc1 (stereo not drawn) [Example 24, 5′-chloro-6′-methyl-3′-[1-(9H-purin-6-ylamino)ethyl]-1,1′:2′,1″-terphenyl-4-carbonitrile] | 100 to 500 nM | < 50 nM
COc1ccc(-c2c(C)c(Cl)cc(C(C)Nc3ncnc4[nH]cnc34)c2OC)cn1 (stereo not drawn) [Example 52, N-{1-[5-chloro-2-methoxy-3-(6-methoxypyridin-3-yl)-4-methylphenyl]ethyl}-9H-purin-6-amine] | < 100 nM | < 50 nM
Cc1c(Cl)cc(C(C)Nc2ncnc3[nH]cnc23)c(-c2cc(F)cc(F)c2)c1-c1cn[nH]c1 (stereo not drawn) [Example 106, N-{1-[4-Chloro-3′,5′-difluoro-5-methyl-6-(1H-pyrazol-4-yl)biphenyl-2-yl]ethyl}-9H-purin-6-amine] | < 100 nM | < 50 nM
COc1cncc(-c2c(C)c(Cl)cc(C(C)Nc3ncnc4[nH]cnc34)c2OC)c1 (stereo not drawn) [Example 34, N-{1-[5-chloro-2-methoxy-3-(5-methoxypyridin-3-yl)-4-methylphenyl]ethyl}-9H-purin-6-amine] | < 100 nM | < 50 nM
COc1c(C(C)Nc2ncnc3[nH]cnc23)cc(Cl)c(C)c1-c1cccc(Cl)c1 (stereo not drawn) [Example 35, N-[1-(3′,5-dichloro-2-methoxy-6-methylbiphenyl-3-yl)ethyl]-9H-purin-6-amine] | > 1000 nM | 50 to 100 nM
COc1c(C(C)Nc2ncnc3[nH]cnc23)cc(Cl)c(Cl)c1C1CN(C)C1 (stereo not drawn) [Example 199, N-{1-[4,5-Dichloro-2-methoxy-3-(1-methylazetidin-3-yl)phenyl]ethyl}-9H-purin-6-amine] | < 100 nM | < 50 nM
COc1c(C(C)Nc2ncnc3[nH]cnc23)cc(Cl)c(C)c1-c1cncc(C(=O)N2CCOCC2)c1 (stereo not drawn) [Example 111, N-(1-{5-chloro-2-methoxy-4-methyl-3-[5-(morpholin-4-ylcarbonyl)pyridin-3-yl]phenyl}ethyl)-9H-purin-6-amine] | < 100 nM | < 50 nM
CCOc1cccc(-c2c(C)c(Cl)cc(C(C)Nc3ncnc4[nH]cnc34)c2OC)c1 (stereo not drawn) [Example 91, N-[1-(5-chloro-3′-ethoxy-2-methoxy-6-methylbiphenyl-3-yl)ethyl]-9H-purin-6-amine] | > 1000 nM | 50 to 100 nM
COc1ncc(-c2c(C)c(Cl)cc(C(C)Nc3ncnc4[nH]cnc34)c2OC)cn1 (stereo not drawn) [Example 23, N-{1-[5-chloro-2-methoxy-3-(2-methoxypyrimidin-5-yl)-4-methylphenyl]ethyl}-9H-purin-6-amine] | < 100 nM | < 50 nM
Cc1c(Cl)cc(C(C)Nc2ncnc3[nH]cnc23)c(-c2cccc(F)c2)c1[N+](=O)[O-] (stereo not drawn) [Example 3, N-[1-(4-chloro-3′-fluoro-5-methyl-6-nitrobiphenyl-2-yl)ethyl]-9H-purin-6-amine] | > 1000 nM | 100 to 250 nM
Cc1c(Cl)cc(C(C)Nc2ncnc3[nH]cnc23)c(-c2cc(F)cc(F)c2)c1C(N)=O (stereo not drawn) [Example 19, 4-Chloro-3′,5′-difluoro-3-methyl-6-[1-(9H-purin-6-ylamino)ethyl]biphenyl-2-carboxamide] | < 100 nM | < 50 nM
Cc1c(Cl)cc(C(C)Nc2ncnc3[nH]cnc23)c(-c2cc(F)cc(F)c2)c1-c1cncnc1 (stereo not drawn) [Example 81, N-[1-(4-chloro-3′,5′-difluoro-5-methyl-6-pyrimidin-5-ylbiphenyl-2-yl)ethyl]-9H-purin-6-amine] | < 100 nM | < 50 nM
COc1c(C(C)Nc2ncnc3[nH]cnc23)cc(Cl)c(C)c1-c1ccc(C(F)(F)F)cc1 (stereo not drawn) [Example 38, N-{1-[5-chloro-2-methoxy-6-methyl-4′-(trifluoromethyl)biphenyl-3-yl]ethyl}-9H-purin-6-amine] | > 1000 nM | 100 to 250 nM
CNC(=O)c1ccc(-c2c(C)c(Cl)cc(C(C)Nc3ncnc4[nH]cnc34)c2OC)cc1Cl (stereo not drawn) [Example 37, 3,3′-dichloro-6′-methoxy-N,2′-dimethyl-5′-[1-(9H-purin-6-ylamino)ethyl]biphenyl-4-carboxamide] | < 100 nM | < 50 nM
CCOc1c(C(C)Nc2ncnc3[nH]cnc23)cc(Cl)c(C#N)c1-c1ccc(C(=O)N(C)C)nc1 (stereo not drawn) [Example 179, 5-{3-chloro-2-cyano-6-ethoxy-5-[1-(9H-purin-6-ylamino)ethyl]phenyl}-N,N-dimethylpyridine-2-carboxamide bis(2,2,2-trifluoroacetate)] | < 100 nM | < 50 nM
Cc1c(Cl)cc(C(C)Nc2ncnc3[nH]cnc23)c(-c2cc(F)cc(F)c2)c1-c1ccncc1 (stereo not drawn) [Example 76, N-[1-(4-Chloro-3′,5′-difluoro-5-methyl-6-pyridin-4-ylbiphenyl-2-yl)ethyl]-9H-purin-6-amine bis(trifluoroacetate)] | < 100 nM | < 50 nM
Cc1c(Cl)cc(C(C)Nc2ncnc3[nH]cnc23)c(-c2cccc(F)c2)c1-c1ccnn1C (stereo not drawn) [Example 74, N-{1-[4-chloro-3′-fluoro-5-methyl-6-(1-methyl-1H-pyrazol-5-yl)biphenyl-2-yl]ethyl}-9H-purin-6-amine] | < 100 nM | < 50 nM
COc1c(C(C)Nc2ncnc3[nH]cnc23)cc(Cl)c(C)c1-c1cccc(CC#N)c1 (stereo not drawn) [Example 46, {3′-chloro-6′-methoxy-2′-methyl-5′-[1-(9H-purin-6-ylamino)ethyl]biphenyl-3-yl}acetonitrile] | < 100 nM | < 50 nM
COc1ncc(-c2c(C)c(Cl)cc(C(C)Nc3ncnc4[nH]cnc34)c2OC)cc1F (stereo not drawn) [Example 109, N-{1-[5-chloro-3-(5-fluoro-6-methoxypyridin-3-yl)-2-methoxy-4-methylphenyl]ethyl]-9H-purin-6-amine] | < 100 nM | < 50 nM
Cc1nn(C)c(C)c1-c1c(C)c(Cl)cc(C(C)Nc2ncnc3[nH]cnc23)c1-c1cccc(F)c1 (stereo not drawn) [Example 75, N-{1-[4-chloro-3′-fluoro-5-methyl-6-(1,3,5-trimethyl-1H-pyrazol-4-yl)biphenyl-2-yl]ethyl}-9H-purin-6-amine] | < 100 nM | < 50 nM
